Results from patent publication US6337344B1, “Indole derivatives as inhibitors or factor Xa” (Aventis Pharma Deutschland GmbH, priority 1997, dated 2002).

B1: antistasin (protein, UniProt P15358 18-136, looked up)
Antistasin: QGPFGPGCEEAGCPEGSACNIITDRCTCSGVRCRMHCPHGFQRSRYGCEFCKCRLEPMKATCDISECPEGMMCSRLTNKCDCKIDINCRKTCPNGLKRDKLGCEYCECRPKRKLIPRLS

What was measured:
human factor Xa = target: T1, human factor Xa (Homo sapiens, UniProt P00742); experiment: Factor Xa assay (Test 1, a.), chromogenic substrate S-2765; type: biochemical
T1 construct: purchased Enzyme Research Laboratories, Inc; South Bend, Ind
T1 sequence (P00742 235-488 limits assumed): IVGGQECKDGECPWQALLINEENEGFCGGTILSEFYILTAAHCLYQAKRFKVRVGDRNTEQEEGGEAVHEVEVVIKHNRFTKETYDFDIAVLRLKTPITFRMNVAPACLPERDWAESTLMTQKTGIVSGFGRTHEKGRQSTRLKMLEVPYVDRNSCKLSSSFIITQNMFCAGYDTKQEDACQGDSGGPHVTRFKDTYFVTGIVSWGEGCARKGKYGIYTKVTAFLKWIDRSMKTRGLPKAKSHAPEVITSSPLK
T1 sequence (P00742 41-179 partner limits assumed): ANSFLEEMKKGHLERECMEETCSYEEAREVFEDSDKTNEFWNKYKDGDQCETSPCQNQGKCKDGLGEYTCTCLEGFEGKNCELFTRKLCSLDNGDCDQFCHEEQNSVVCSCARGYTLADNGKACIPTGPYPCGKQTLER
Procedure: Purified enzymes are used in chromogenic assays. To determine the inhibition constant Ki, the IC50 value is corrected for competition with substrate using the formula
Ki'IC50×(1/{1+((substrate concentration)/substrate Km)})
wherein Km is the Michaelis-Menten constant (Chen and Prusoff, Biochem. Pharmacol. 22 (1973), […] which is incorporated herein by reference).
TBS-PEG buffer (50 mM Tris-Cl, pH 7.8, 200 mM NaCl, 0.05% (w/v) PEG-8000, 0.02% (w/v) NaN3) is used for this assay.
The assay is performed by pre-incubating the compound of formula I plus enzyme for 10 min. Then the assay is initiated by adding substrate to obtain a final volume of 100 μl. The initial velocity of chromogenic substrate hydrolysis is measured by the change in absorbance at 405 nm using a Bio-tek Instruments kinetic plate reader (Ceres UV900HDi) at 25° C. during the linear portion of the time course (usually 1.5 min after addition of substrate). The concentration of inhibitor that causes a 50% decrease in the rate of substrate hydrolysis is predicted by linear regression after plotting the relative rates of hydrolysis (compared to the uninhibited control) versus the log of the concentration of the compound of formula I. The enzyme concentration is 0.5 nM and substrate concentration is 140 μM.
The inhibition constants were determined as described above (Test 1, a., Factor Xa Assay).

factor Xa = settings: values of known factor Xa inhibitors stated in the background; cited from earlier work

| Molecule | Ki (human factor Xa) [nM] | melting point | Ki (factor Xa) [nM] |
| --- | --- | --- | --- |
| N=C(N)c1cccc(Cn2c(C(=O)NC(c3ccccc3)c3ccncc3)cc3ccccc32)c1.O=C(O)C(F)(F)F.O=C(O)C(F)(F)F (racemic) [Example 23, (RS)-1-(3-Amidino-benzyl)-1H-indole-2-carboxylic acid α-(4-pyridyl)-benzyl amide trifluoroacetic acid salt] | 7000 | 88 to 92 °C | – |
| CN1CCC(C(NC(=O)c2cc3ccccc3n2Cc2cccc(C(=N)N)c2)c2ccc3cc(Cl)ccc3c2)CC1.O=C(O)C(F)(F)F.O=C(O)C(F)(F)F (racemic) [Example 27, (RS)-1-(3-Amidino-benzyl)-1H-indole-2-carboxylic acid ((6-chloro-2-naphthyl)-(1-methyl-piperidin-4-yl)-methyl)amide trifluoroacetic acid salt] | 610 | 110 to 120 °C | – |
| N=C(N)c1ccc(C=C2CCCCC(=Cc3ccc(C(=N)N)cc3)C2=O)cc1 [2,7-bis-(4-amidinobenzylidene)-cycloheptanone, reference compound] | – | – | ~20 |
| CC(=O)O.CC(=O)[O-].C[N+](C)(C)c1ccc(CNC(=O)c2cc3c(O)cccc3n2Cc2cccc(C(=N)N)c2)cc1 [Example 39, [4-({[1-(3-Amidino-benzyl)-4-hydroxy-1H-indole-2-carbonyl]-amino}-methyl)-phenyl]-trimethyl-ammonium acetate acetic acid salt] | 7 | 113 °C (dec.) | – |
| Cc1cccc2c1cc(C(=O)NCc1cccc(C(=N)N)c1)n2Cc1cccc(C(=N)N)c1.O=C(O)C(F)(F)F.O=C(O)C(F)(F)F [Example 47, 1-(3-Amidino-benzyl)-4-methyl-1H-indole-2-carboxylic acid 3-amidino-benzyl amide trifluoroacetic acid salt] | 7 | 242 to 243 °C | – |
| CC(=O)O.CC(=O)[O-].CC(C)(C)OC(=O)Nc1ccc2c(c1)cc(C(=O)NCc1ccc([N+](C)(C)C)cc1)n2Cc1cccc(C(=N)N)c1 [Example 58, [4-({[1-(3-Amidino-benzyl)-5-tert-butoxycarbonylamino-1H-indole-2-carbonyl]-amino}-methyl)-phenyl]-trimethyl-ammonium acetate acetic acid salt] | 14 | 146 °C (dec.) | – |
| N=C(N)c1ccc(CNC(=O)c2cc3c(O)cccc3n2Cc2cccc(C(=N)N)c2)cc1.O=C(O)C(F)(F)F.O=C(O)C(F)(F)F [Example 78, 1-(3-Amidino-benzyl)-4-hydroxy-1H-indole-2-carboxylic acid 4-amidino-benzylamide trifluoroacetic acid salt] | 210 | 155 to 157 °C | – |
| COC(=O)c1cccc(CNC(=O)c2cc3c(O)cccc3n2Cc2cccc(C(=N)N)c2)c1 [Example 132] | 2000 | – | – |
| tick anticoagulant peptide (YNRLCIKPRDWIDECDSNEGGERAYFRNGKGGCDSFWICPEDHTGADYYSSYRDCFNACI; UniProt P17726 1-60, looked up) [TAP] | – | – | ~0.5 |
| B1 | – | – | 0.05 |
